Experimental data published in ChEMBL document CHEMBL4052716, “Discovery and development of a novel class of phenoxyacetyl amides as highly potent TRPM8 agonists for use as cooling agents” (Bioorg Med Chem Lett, 2017).
≈ marks a conversion by molar mass, not a printed value. Calls of active or inactive are those of the source. The calls are words filed in the database; no cut-off is given here.

Columns and labels:
[1] = molecular target: T1, Transient receptor potential cation channel subfamily M member 8 (Homo sapiens, UniProt Q7Z2W7); test: Agonist activity at human TRPM8 expressed in HEK293 cells assessed as increase in intracellular calcium level after 15 mins by Fluo-3-AM dye-based fluorescence assay; assay type: cell-based; conditions: read-out: EC50
Target sequence in this assay (Q7Z2W7 whole entry): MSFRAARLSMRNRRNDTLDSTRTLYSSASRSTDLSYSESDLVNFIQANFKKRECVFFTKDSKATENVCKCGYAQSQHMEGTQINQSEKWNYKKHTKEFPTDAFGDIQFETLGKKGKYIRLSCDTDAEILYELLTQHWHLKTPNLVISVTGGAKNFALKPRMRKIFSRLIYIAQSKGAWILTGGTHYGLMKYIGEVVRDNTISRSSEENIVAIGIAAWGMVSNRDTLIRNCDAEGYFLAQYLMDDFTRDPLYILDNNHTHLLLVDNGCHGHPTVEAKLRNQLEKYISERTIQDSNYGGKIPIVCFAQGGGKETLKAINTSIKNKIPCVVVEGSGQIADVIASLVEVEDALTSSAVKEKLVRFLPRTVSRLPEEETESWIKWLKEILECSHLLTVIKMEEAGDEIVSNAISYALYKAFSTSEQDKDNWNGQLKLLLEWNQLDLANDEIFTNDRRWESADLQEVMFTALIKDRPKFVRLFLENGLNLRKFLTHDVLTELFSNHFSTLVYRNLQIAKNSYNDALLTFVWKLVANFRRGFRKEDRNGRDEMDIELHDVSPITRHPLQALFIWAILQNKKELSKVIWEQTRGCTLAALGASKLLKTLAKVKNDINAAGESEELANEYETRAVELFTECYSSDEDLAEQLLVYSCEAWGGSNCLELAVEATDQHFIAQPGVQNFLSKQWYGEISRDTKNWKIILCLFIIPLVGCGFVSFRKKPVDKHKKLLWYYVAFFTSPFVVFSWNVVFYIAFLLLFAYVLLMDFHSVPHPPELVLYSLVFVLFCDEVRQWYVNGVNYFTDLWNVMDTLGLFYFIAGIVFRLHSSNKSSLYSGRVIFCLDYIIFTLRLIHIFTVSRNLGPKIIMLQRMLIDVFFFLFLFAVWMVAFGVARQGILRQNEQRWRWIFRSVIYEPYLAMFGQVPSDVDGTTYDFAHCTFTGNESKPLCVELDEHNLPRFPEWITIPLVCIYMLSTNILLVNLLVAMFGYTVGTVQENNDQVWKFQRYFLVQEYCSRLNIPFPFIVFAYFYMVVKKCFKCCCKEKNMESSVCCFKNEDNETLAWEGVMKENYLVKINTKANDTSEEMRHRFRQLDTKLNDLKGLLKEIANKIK

[2] = molecular target: T1, Transient receptor potential cation channel subfamily M member 8; test: Potency index, ratio of WS-3 EC50 to compound EC50 for human TRPM8 receptor
Target sequence in this assay (Q7Z2W7 whole entry, looked up): as the sequence (Q7Z2W7 whole entry) above

[3] = Stability of the compound in pH 2.8 citric acid assessed as compound remaining after heating at 100 degC for 24 hrs; assay type: physicochemical; conditions: read-out: Stability
[4] = Stability of the compound in pH 4.0 citric acid assessed as compound remaining after heating at 100 degC for 24 hrs; assay type: physicochemical; conditions: read-out: Stability
[5] = Stability of the compound in pH 7.1 phosphoric acid assessed as compound remaining after heating at 100 degC for 24 hrs; assay type: physicochemical; conditions: read-out: Stability
Homo sapiens [6] = test: In vivo agonist activity at human TRPM8 in trained human subjects assessed as concentration required to deliver cooling sensation equivalent to 45 uM WS-3 by measuring cooling intensity; assay type: functional
Homo sapiens [7] = species on record: Homo sapiens; test: Induction of off-taste response in rained human subjects assessed as induction of bitterness during cooling sensation study
Homo sapiens [8] = test: In vivo agonist activity at human TRPM8 in trained human subjects assessed as time duration of perceived cooling effect at 45 uM dosed as aqueous solution; assay type: functional
[9] = Thermodynamic solubility of the compound in pH 7.1 phosphoric buffer; assay type: physicochemical; conditions: read-out: Therm_solubility
[10] = Permeability of the compound assessed as drug transport by PAMPA; assay type: physicochemical
Homo sapiens [11] = species on record: Homo sapiens; test: Induction of off-taste response in rained human subjects during cooling sensation study
Homo sapiens [12] = test: In vivo agonist activity at human TRPM8 in trained human subjects assessed as time duration of perceived cooling effect at 3 uM dosed as aqueous solution; assay type: functional

Row | Compound | EC50 [1] | Ratio EC50 [2] | remaining at 24 h [3] | remaining at 24 h [4] | remaining at 24 h [5] | solubility thermodynamic [9] | Drug transport [10] | Activity (Homo sapiens [6]) | Activity (Homo sapiens [7]) | Time (Homo sapiens [8]) | Activity (Homo sapiens [11]) | Time (Homo sapiens [12])
1 | CCNC(=O)[C@@H]1C[C@H](C)CC[C@H]1C(C)C |  |  |  |  |  |  |  |  |  | 25 min |  | 
2 | Cc1ccc(OCC(=O)N(Cc2cccs2)c2ccn[nH]2)cc1 | 0.2 nM | 35800 |  |  |  | 189 µM (≈ 61.9 µg/mL) | 10% | 3 µM |  |  | Non-Toxic | 60 min
3 | CCN(Cc1cccs1)C(=O)COc1ccc2c(c1)COC2 | 61 nM | 58 |  |  |  | 571 µM (≈ 181 µg/mL) | 33% | 5 µM |  |  |  | 

Further compounds by falling EC50 [1], results first:

Row | EC50 [1] | Ratio EC50 [2] | remaining at 24 h [3] | remaining at 24 h [4] | remaining at 24 h [5] | solubility thermodynamic [9] | Drug transport [10] | Compound | Activity (Homo sapiens [6]) | Activity (Homo sapiens [7]) | Time (Homo sapiens [8]) | Activity (Homo sapiens [11]) | Time (Homo sapiens [12])
4 | 422 nM | 14 |  |  |  |  |  | Cc1ccc(OCC(=O)N(Cc2cccs2)c2ccnn2C)cc1 | inactive | Toxic |  |  | 
5 | 2 nM | 3440 | 90.8% | 78.1% | 0.5% |  |  | Cc1ccc(OCC(=O)N(Cc2cccs2)c2ccon2)cc1 |  |  |  |  | 
6 | 0.3 nM | 120000 | 14.9% | 73.7% | 0.1% |  |  | Cc1ccc(OCC(=O)N(Cc2cccs2)c2ncco2)cc1 |  |  |  |  | 
